The source of these data is patent US20100010078A1, “METHODS OF TREATING ANDROGEN DEPENDENT PROSTATE CANCER BY ADMINISTERING AN ACTIVE PHARMACEUTICAL INGREDIENT BEING FISETIN, 3,3',4',7-TETRAHYDROXYFLAVONE OR A DERIVATIVE THEREOF, IN AN ORAL, TRANSDERMAL OR TOPICAL DOSAGE FORM” (priority 2008, published 2010).

Common to all, as to format: cell-based, human
Experiment [1] concerns cyclin D1, cyclin D2 and cyclin E. Description: Western blot, cyclins in LNCaP cells. The following applies: fisetin 10-60 μM, 48 h. The protocol:
(§1) Protein extraction and western blotting. Following the treatment of LNCaP cells with fisetin (10-60 μM; 48 h), the media was aspirated, the cells were washed with cold PBS (pH 7.4), and ice-cold lysis buffer (50 mM Tris-HCl, 150 mM NaCl, 1 mM EGTA, 1 mM EDTA, 20 mM NaF, 100 mM Na3VO4, 0.5% NP-40, 1% Triton X-100, 1 mM PMSF (pH 7.4)) with freshly added protease inhibitor cocktail (Protease Inhibitor Cocktail Set III, Calbiochem, La Jolla, Calif.) over ice for 30 min. The cells were scraped and the lysate was collected in a microfuge tube and passed through a needle to break up the cell aggregates. […]
(§2) For western blotting, 30-50 μg protein was resolved over 8-12% polyacrylamide gels and transferred to a nitrocellulose membrane. The blot was blocked in blocking buffer (5% nonfat dry milk/1% Tween 20; in 20 mM TBS, pH 7.6) for 1 hr at room temperature, incubated with appropriate monoclonal or polyclonal primary antibody in blocking buffer for 1.5 h to overnight at 4° C., followed by incubation with anti-mouse or anti-rabbit secondary antibody horseradish peroxidase conjugate obtained from Amersham Life Science Inc. and detected by chemiluminescence and autoradiography using XAR-5 film obtained from Eastman Kodak Co. (Rochester, N.Y., USA). […]
(In general: Immunoblotting shows a protein as a band on a membrane.)

For another experiment, the system named is Bax and Bcl-2. Put plainly: Western blot, Bax and Bcl-2 in LNCaP cells. The following applies: fisetin 10-60 μM, 48 h. As for the experimental part:
Protein extraction and western blotting. Following the treatment of LNCaP cells with fisetin (10-60 μM; 48 h), the media was aspirated, the cells were washed with cold PBS (pH 7.4), and ice-cold lysis buffer (50 mM Tris-HCl, 150 mM NaCl, 1 mM EGTA, 1 mM EDTA, 20 mM NaF, 100 mM Na3VO4, 0.5% NP-40, 1% Triton X-100, 1 mM PMSF (pH 7.4)) with freshly added protease inhibitor cocktail (Protease Inhibitor Cocktail Set III, Calbiochem, La Jolla, Calif.) over ice for 30 min. The cells were scraped and the lysate was collected in a microfuge tube and passed through a needle to break up the cell aggregates. The lysate was cleared by centrifugal ion al 14,000 g for 15 min at 4° C. and the supernatant (whole cell lysate) was used or immediately stored at […].
For western blotting, 30-50 μg protein was resolved over 8-12% polyacrylamide gels and transferred to a nitrocellulose membrane. The blot was blocked in blocking buffer (5% nonfat dry milk/1% Tween 20; in 20 mM TBS, pH 7.6) for 1 hr at room temperature, incubated with appropriate monoclonal or polyclonal primary antibody in blocking buffer for 1.5 h to overnight at 4° C., followed by incubation with anti-mouse or anti-rabbit secondary antibody horseradish peroxidase conjugate obtained from Amersham Life Science Inc. and detected by chemiluminescence and autoradiography using XAR-5 film obtained from Eastman Kodak Co. (Rochester, N.Y., USA). Densitometric measurements of the band in Western blot analysis were performed using digitalized scientific software program UN-SCAN-IT (Silk Scientific Corporation. Orem, Utah.

The next experiment concerns LNCaP cells. Description: Apoptosis by Cell Death Detection ELISAPLUS
The following applies: 48 h. As for the experimental part:
Apoptosis by ELISA. Following treatment of LNCaP cells with fisetin (10-60 μM; 48 h), the extent of apoptosis was determined by Cell Death Detection ELISA^PLUS assay, according to the manufacturer's protocol. The whole cell lysate (40 μg of total protein) was added to the lysis buffer and pipetted on a streptavidin-coated 96-well microtiter plate to which the immunoreagent mix was added and incubated for 2 h at room temperature, with continuous shaking at 500 rpm. The wells were then washed with washing buffer, the substrate solution added, the color developed (10-20 min) was read at 405 nm against the blank, reference wavelength of 490 nm. The enrichment factor (total amount of apoptosis) was calculated by dividing the absorbance of the sample (A405 nm) by the absorbance of the controls without treatment ([…]).

Experiment [2] concerns PI3K (p85), Akt (Ser473 and Thr308). Description: Western blot, PI3K (p85) and phosphorylation of Akt in LNCaP cells. As to conditions: fisetin 10-60 μM, 48 h. As for the experimental part: as §1, §2

As to `O=c1c(O)c(-c2ccc(O)c(O)c2)oc2cc(O)ccc12` [fisetin, 3,3′,4′,7-tetrahydroxyflavone], the “protein expression of cyclins D1, D2 and E” value in experiment [1] is listed as “dose-dependent decrease”. Also, in the experiment with Bax and Bcl-2, the “protein expression of Bax” value is listed as “significant increase”, the “protein expression of Bcl-2” value is listed as “significantly decreased” and the “ratio of Bax to Bcl-2” value is “significant dose-dependent shift”. The “apoptosis as compared to control” value in the experiment on LNCaP cells (fisetin 10 μM) is on record as 40%. For the same compound, the “apoptosis as compared to control” value with LNCaP cells (fisetin 20 μM) is 64%. Besides, the “apoptosis as compared to control” value in the experiment with LNCaP cells (fisetin 40 μM) is recorded as 103%. For the same compound, the “apoptosis as compared to control” value with LNCaP cells (fisetin 60 μM) is 106%. In addition, in experiment [2], the “expression of regulatory (p85) subunit of PI3K” value is on record as “inhibition”; the “phosphorylation of Akt at Ser473 and Thr308” value was “inhibited”.
